Like-named read-outs stand apart in the source and are kept apart here.
Columns and labels:
[1] = Stability of NTI164 oil formulation at room temperature (UPLC)
TNF-ALPHA = assay: TNF-alpha in microglial culture media, psylocibin combination (Example 9); format: cell-based; settings: PBS control 1.00, positive activation I&I 10.67
Protocol: Microglia media harvested following treatment initiation was centrifuged briefly to remove particulates (300 g for 10 min). The level of TNFα in the microglial culture media was measured using a Bio-Plex 200 with a 96-well magnetic plate assay according to the manufacturer's instructions (Bio-Rad). The samples were run in duplicate that were averaged for analysis. At least three samples per group were run.

[2] = NTI164 oil, room temperature, Day 14

Row | Compound | Cannabinoid content of NTI164, Day 0 ([1]; NTI164 oil, room temperature) [mg/mL] | Cannabinoid content of NTI164, Day 2 ([1]; NTI164 oil, room temperature) [mg/mL] | Cannabinoid content of NTI164, Day 7 ([1]; NTI164 oil, room temperature) [mg/mL] | Cannabinoid content of NTI164, Day 14 [1, 2] [mg/mL] | Cannabinoid content of NTI164, Day 28 ([1]; NTI164 oil, room temperature) [mg/mL] | Cannabinoid content of NTI164, Week 5 ([1]; NTI164 oil, room temperature) [mg/mL] | Cannabinoid content of NTI164, Week 6 ([1]; NTI164 oil, room temperature) [mg/mL] | Cannabinoid content of NTI164, Week 32 ([1]; NTI164 oil, room temperature) [mg/mL] | Cannabinoid content of NTI164, Day 14 [1] [mg/mL] | TNF-alpha assessment result (TNF-ALPHA; 1 ug/ml) | TNF-alpha assessment result (TNF-ALPHA; 5 ug/ml)
1 | CCCCCc1cc(O)c(C/C=C(\C)CCC=C(C)C)c(O)c1 [Cannabigerol (CBG), Cannabigerol] | 5.21 | 5.23 | 5.14 | 5.1 | 5.1 | 5.30 | 5.28 | 5.12 | – | – | –
2 | CCCCCc1cc(O)c2c(c1)OC(C)(C)c1ccc(C)cc1-2 [Cannabinol (CBN), Cannabinol] | 2.32 | 2.54 | 2.48 | – | 2.56 | 2.22 | 2.27 | 2.21 | 2.33 | – | –
3 | CCCCCc1cc(O)c2c(c1)OC(C)(C)[C@@H]1CCC(C)=C[C@@H]21 [Tetrahydrocannabinol (D9-THC), Delta-9-tetrahydrocannabinol] | <0.1 | <0.1 | <0.1 | <0.1 | <0.1 | 0.14 | <0.1 | 0.11 | – | – | –
4 | CCCCCc1cc(O)c2c(c1)OC(C)(CCC=C(C)C)C=C2 (stereo not shown) [Cannabichrome(CBC), Cannabichromene] | 1.23 | 1.19 | 1.34 | 1.22 | 1.27 | 1.20 | 1.15 | 1.22 | – | – | –
5 | C=C(C)[C@@H]1CCC(C)=C[C@H]1c1c(O)cc(CCC)cc1O [Cannabidivarin (CBDV), Cannabidivarin] | <0.1 | <0.1 | <0.1 | <0.1 | <0.1 | 0.10 | <0.1 | 0.13 | – | – | –
6 | C=C(C)[C@@H]1CCC(C)=C[C@H]1c1c(O)cc(CCCCC)c(C(=O)O)c1O [Cannabidiol acid (CBD-A), Cannabidiol acid] | 48.16 | 48.19 | 48.62 | 48.09 | 47.12 | 48.35 | 47.56 | 47.01 | – | – | –
7 | CCCCCc1cc(O)c2c(c1)OC(C)(C)C1CC=C(C)CC21 (stereo not shown) [DELTA-8-THC (D8-THC), Delta-8-tetrahydrocannabinol] | <0.1 | <0.1 | <0.1 | – | <0.1 | <0.1 | <0.1 | <0.1 | <0.1 | – | –
8 | CCCCCc1cc(O)c(C/C=C(\C)CCC=C(C)C)c(O)c1C(=O)O [Cannabigerol Acid(CBG-A), Cannabigerolic acid] | 1.07 | 1.18 | 1.20 | 1.19 | 0.81 | 1.08 | 1.00 | 1.05 | – | – | –
9 | CN(C)CCc1c[nH]c2cccc(OP(=O)(O)O)c12 [SubP (Psylocibin), Psylocibin] | – | – | – | – | – | – | – | – | – | 4.87 | 9.17
10 | CCCc1cc(O)c2c(c1)OC(C)(C)[C@@H]1CCC(C)=C[C@@H]21 [Tetrahydrocannabivarin (THCV), Tetrahydrocannabivarin] | <0.1 | <0.1 | <0.1 | – | <0.1 | <0.1 | <0.1 | <0.1 | <0.1 | – | –
11 | CCCCCc1cc2c(c(O)c1C(=O)O)[C@@H]1C=C(C)CC[C@H]1C(C)(C)O2 [(Tetrahydrocannabinolic acid) (D9-THCA), Delta-9-tetrahydrocannabinolic acid] | 0.66 | 0.72 | 0.64 | – | 0.36 | 0.79 | 0.73 | <0.1 | 0.69 | – | –
